Key:
Aβ42 = Aβ42 content in culture supernatant of HEK293APP/sw overexpressing cells (ELISA kit); assay type: cell-based; conditions: compound 400 μM, 24 hours, adjusted by total protein concentration, blank control 11.08
Experimental: BCA Protein Assay Kit was purchased from Beyotime, Aβ40 and Aβ42 detection kits were purchased from Wako, and cell culture related reagents were purchased from Gibco.
HEK293APP/sw overexpressing cells were cultured in DMEM medium containing 10% FBS, 100 μg/mL G418 (Geneticin) and 1×Penicillin-Streptomycin in 48-well plates. A 4 mM compound stock solution (prepared by dissolving the compound in DMEM culture medium) was filtered through a 0.22 μm sterile filter and stored at −20° C. for subsequent use. At 70% cell density, 40 μL of the compound test solution was added to each well to reach a final concentration of 400 μM, and the plate was incubated for 24 hours.
The supernatant of the culture medium was collected. The BCA reagent was added to a part of the supernatant, after incubating at room temperature for 30 min, the absorbance value (i.e., OD value) of each well was determined by a microplate reader at 570 nm. The total protein concentration was calculated according to a protein standard curve. Meanwhile, the other part of the supernatant (100 μL) was added to a coated 96-well plate and incubated overnight at 4° C., after the solution was removed and the reagents were washed, HRP (horseradish peroxidase)-labeled antibody was added and incubated at 4° C. for 2 hours. After the reagents were removed and washed, a TMB chromogenic solution was added, the plate was incubated at room temperature for 30 min, and then a stop solution was added to stop the reaction. The absorbance value (i.e., OD value) of each well was measured by a microplate reader at 450 nm. The concentrations of Aβ40 and Aβ42 were calculated according to the standard curves of Aβ40 and Aβ42, respectively. In the end, the concentrations of Aβ40 and Aβ42 were adjusted by the total protein concentration, so as to obtain the final concentration.

APP/PSi 2×Tg mice = assay: Water maze behavior test; assay type: in vivo; conditions: 200 mg/kg oral gavage once a day, 8 weeks; for The number of crossing the platform: test day 6, model group 0.9 ± 0.6; for Time in the target quadrant: test day 6, model group 12.8 ± 2.9, in s
Excerpt: Rodents in water have a strong incentive to escape from the water environment, and can escape from the water environment in the fastest and most direct way. The process of learning to escape from the water environment reflects the learning ability of the animals. Spatial positioning according to the surrounding environment and purposefully swimming to a safe place in the water (such as a platform) can reflect the spatial learning and memory ability of the animals.
The test animals were APP/PSi 2×Tg mice (C57BL/6 wild-type mice as the blank control). Mice of 6-8 months old, weighing 20-40 g, were purchased from The Jackson laboratory.
APP/PSi mice are APP/PSi di-transgenic Alzheimer's disease (2×Tg-AD) model mice, and the appearance of deposition of Aβ is earlier than the pathological changes of tau protein for several months, which can more truly simulate the clinical process and pathological changes of Alzheimer's disease.
Preparation of 0.7% CMC-Na: 0.7 g CMC-Na was added with a proper amount of water, heated for dissolution, left for cooling to room temperature, diluted to 100 mL, and stored at 4° C.
Preparation of BTMP: 100 mg of BTMP was added to 10 mL of 0.7% CMC-Na to prepare a 10 mg/mL suspension for use.
Preparation of test compound and comparative compound 1: 100 mg of the compound to be tested was weighted and added to 10 mL of 0.7% CMC-Na to prepare a 10 mg/mL suspension for use.
The laboratory mice were randomly divided into groups (9 or 10 mice per group). Mice in each group were administrated at a dosage of 0.2 mL/10 g body weight by oral gavage once a day for eight weeks.
The mice in the blank control group, model group and test group were orally administrated for 8 consecutive weeks according to the above administration dosage/specification. The water maze training and test were started in the last week of administration. The water maze training and test lasted for six days, with a training period of five days and a testing period of one day. In addition, during the training and testing period of water maze (6 days in total), the indoor conditions such as lighting etc. were kept consistent, the room was kept quiet, and the interference from the environment and personnel was excluded.
2.1. Preparation before the test: a proper amount of water was put into the water maze pool with the water temperature being kept at 22±3° C. The platform was placed in a fixed position (target quadrant) and 1 cm below the water surface, and titanium dioxide was added until the water became white, so that the platform could not be seen clearly.
2.2. Training period (days 1 to 5): on each day, before the first quadrant training, each mouse was placed on the platform for 15 s (to increase the mice's sense of security on the platform), and then the mouse was put into the pool (with its head facing the pool wall) from the quadrant where the platform located, and the swimming time was set as 60 s. If the mouse found the platform within 60 s and stayed for 5 s, it was regarded as the platform being found successfully. If the mouse could not find the platform, then the time was recorded as 60 s. The mouse was guided to the platform and stayed for 20 s, the mouse was then taken out, and the quadrant training for this mouse was ended.
After the first quadrant training, the mouse was trained in the remaining three quadrants sequentially, where it is not necessary to place the mouse on the platform for 15 s before training. The training of each mouse in every two quadrants was conducted at an interval of 10-15 minute. In this way, the training was performed continuously for 5 days.
2.3. Testing period (day 6): 24 hours after the last training, the platform was removed, and the mouse was dropped at the position opposite to the quadrant where the platform previously located (i.e., the position furthest away from the platform). […]

[1] = test day 6, model group 45.0 ± 8.8

CCCC(CCC)C(=O)S/C(CCOP(=O)(O)O)=C(/C)N(C=O)Cc1cnc(C)nc1N [Compound 1, (Z)—S-(2-(N-((4-amino-2-methylpyrimidin-5-yl)methyl)formamido)-5-(phosphonooxy)pent-2-en-3-yl) 2-propylpentanethioate]
The content of Aβ42 (Aβ42): 3.32 pmol/L | The number of crossing the platform (APP/PSi 2×Tg mice): 2.4 ± 0.8 | Time in the target quadrant (APP/PSi 2×Tg mice): 19.6 ± 3.4 | Latency period (APP/PSi 2×Tg mice; test day 6, model group 45.0 ± 8.8, 200 mg/kg): 22.0 ± 1.5 s | Latency period (APP/PSi 2×Tg mice; test day 6, model group 45.0 ± 8.8, listed as compound 1, 200 mg/kg): 22.0 ± 1.5 s

C/C(=C(\CCOP(=O)(O)O)SC(=O)c1ccco1)N(C=O)Cc1cnc(C)nc1N [Compound 9, (Z)—S-(2-(N-((4-amino-2-methylpyrimidin-5-yl)methyl)formamido)-5-(phosphonooxy)pent-2-en-3-yl) furan-2-carbothioate]
The content of Aβ42 (Aβ42): 2.94 pmol/L | The number of crossing the platform (APP/PSi 2×Tg mice): 2.3 ± 0.5 | Time in the target quadrant (APP/PSi 2×Tg mice): 18.6 ± 1.6 | Latency period (APP/PSi 2×Tg mice; [1]): 22.8 ± 1.3 s

CCC(CC)C(=O)S/C(CCOP(=O)(O)O)=C(/C)N(C=O)Cc1cnc(C)nc1N [Compound 2, (Z)—S-(2-(N-((4-amino-2-methylpyrimidin-5-yl)methyl)formamido)-5-(phosphonooxy)pent-2-en-3-yl) 2-ethylbutanethioate]
The content of Aβ42 (Aβ42): 3.34 pmol/L | The number of crossing the platform (APP/PSi 2×Tg mice): 2.2 ± 0.6 | Time in the target quadrant (APP/PSi 2×Tg mice): 18.8 ± 2.6 | Latency period (APP/PSi 2×Tg mice; [1]): 22.7 ± 1.1 s
